From patent US10220083B2 (priority 2014, dated 2019)

Experiments:
mAb 1H8 [1] = assay type: binding, mouse
mAb 1F1 = assay type: binding, mouse
[2] = system: human pneumococcal reference serum 007sp (pooled sera of humans immunized with Pneumovax); assay type: binding
mAb 1H8 [3] = test: Surface plasmon resonance with captured mAb 1H8; assay type: binding, mouse; conditions: saccharide 18 at 20 μM, polysaccharides at 10 μg/mL in PBS
Experimental: Surface Plasmon Resonance was performed on a Biacore T100 instrument (GE Healthcare). Analysis was performed using the Mouse Antibody Capture Kit and Amine Coupling Kit (GE Healthcare) for immobilization. About 10000 response units (RU) of capture antibody were immobilized. A commercial mouse IgG (cat. no. 026502, Invitrogen, Carlsbad, US) was immobilized as a dummy in a reference cell (about 10000 RU). About 800 RU of mAb 1H8 were captured prior to every run using a mAb concentration of 50 μg/mL. Runs were performed using PBS as a running buffer and a flow rate of 30 μL/min with 60 s association and 120 s dissociation periods, respectively. Polysaccharides were used at a concentration of 10 μg/mL and saccharide 18 at 20 μM in PBS.

Row | SMILES | binding of mAb 1H8 after inhibition with native SP8 polysaccharide (mAb 1H8 [1]) | recognition by mAb 1H8 (mAb 1H8 [1]) | binding of mAb 1F1 after inhibition with native SP8 polysaccharide (mAb 1F1) | recognition by mAb 1F1 (mAb 1F1) | interaction with the antiserum from human vaccinated with Pneumovax23 [2] | recognition by antiserum from human vaccinated with Pneumovax23 (007sp) [2] | recognition by mAb 1H8 (surface plasmon resonance) (mAb 1H8 [3])
1 | NCCO[C@H]1OC(CO)[C@H](O[C@H]2OC(CO)[C@@H](O[C@@H]3OC(CO)[C@@H](O[C@@H]4OC(C(=O)O)[C@@H](O[C@H]5OC(CO)[C@H](O)[C@H](O)C5O)[C@H](O)C4O)[C@H](O)C3O)[C@H](O)C2O)[C@H](O)C1O (stereo partly drawn) [saccharide 55, α-D-galactopyranosyl-(1→4)-β-D-glucopyranosyluronate-(1→4)-β-D-glucoyranosyl-α-D-glucopyranosyl-(1→4)-α-D-galactopyranosyl-(1→1)-(2-amino)ethanol] | abrogated | recognized with similar intensities | abrogated | recognized with similar intensities |  |  | 
2 | NCCO[C@H]1OC(CO)[C@H](O[C@H]2OC(CO)[C@@H](O[C@@H]3OC(CO)[C@@H](O[C@@H]4OC(CO)[C@@H](O)[C@H](O)C4O)[C@H](O)C3O)[C@H](O)C2O)[C@H](O)C1O (stereo partly drawn) [saccharide 60, β-D-Glucopyranosyl-(1→4)β-D-glucoyranosyl-(1→4)-α-D-glucopyranosyl-(1→4)-α-D-galactopyranosyl-(1→1)-(2-amino)ethanol] |  | recognized with similar intensities |  | recognized with similar intensities |  |  | 
3 | NCCO[C@H]1OC(CO)[C@H](O[C@H]2OC(CO)[C@@H](O[C@@H]3OC(CO)[C@@H](O[C@@H]4OC(C(=O)O)[C@@H](O[C@H]5OC(CO)[C@H](O[C@H]6OC(CO)[C@@H](O)[C@H](O)C6O)[C@H](O)C5O)[C@H](O)C4O)[C@H](O)C3O)[C@H](O)C2O)[C@H](O)C1O (stereo partly drawn) [saccharide 57, α-D-glucopyranosyl-(1→4)-α-D-galactopyranosyl-(1→4)-β-D-glucopyranosyluronate-(1→4)-β-D-glucoyranosyl-(1→4)-α-D-glucopyranosyl-(1→4)-α-D-galactopyranosyl-(1→1)-(2-amino)ethanol] | abrogated | recognized with similar intensities | abrogated | recognized with similar intensities |  |  | 
4 | NCCO[C@H]1OC(CO)[C@H](O[C@H]2OC(CO)[C@@H](O[C@@H]3OC(CO)[C@@H](O)[C@H](O)C3O)[C@H](O)C2O)[C@H](O)C1O (stereo partly drawn) [saccharide 62, β-D-Glucoyranosyl-(1→4)-α-D-glucopyranosyl-(1→4)-α-D-galactopyranosyl-(1→1)-(2-amino)ethanol] |  | recognized with similar intensities |  | recognized with similar intensities |  |  | 
5 | NCCO[C@H]1OC(CO)[C@H](O[C@H]2OC(CO)[C@@H](O[C@@H]3OC(CO)[C@@H](O[C@@H]4OC(C(=O)O)[C@@H](O)[C@H](O)C4O)[C@H](O)C3O)[C@H](O)C2O)[C@H](O)C1O (stereo partly drawn) [saccharide 18, β-D-Glucopyranosyluronic acid-(1→4)β-D-glucoyranosyl-(1→4)-α-D-glucopyranosyl-(1→4)-α-D-galactopyranosyl-(1→1)-(2-amino)ethanol] |  |  |  |  | Robust interactions | recognized | specifically recognizes
